IC50 data for 15 compounds are collected here from ChEMBL document CHEMBL1139811 (Bioorg Med Chem Lett, 2007).

The target of this assay is T1, Mycobacterial beta-ketoacyl-[acyl-carrier-protein] synthase III (Mycobacterium tuberculosis, UniProt P9WNG3).
T1 sequence (P9WNG3 whole entry): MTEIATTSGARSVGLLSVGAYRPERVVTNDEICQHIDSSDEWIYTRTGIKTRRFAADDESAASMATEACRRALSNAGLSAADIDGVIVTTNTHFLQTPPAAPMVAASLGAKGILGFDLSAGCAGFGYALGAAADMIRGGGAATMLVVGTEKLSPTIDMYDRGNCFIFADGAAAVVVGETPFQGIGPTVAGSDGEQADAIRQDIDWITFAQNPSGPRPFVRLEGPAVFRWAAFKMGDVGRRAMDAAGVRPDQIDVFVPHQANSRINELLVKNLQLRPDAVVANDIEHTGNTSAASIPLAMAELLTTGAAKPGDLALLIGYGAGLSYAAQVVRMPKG
The experiment in a line: Inhibition of Mycobacterium tuberculosis FabH.

Broadly, the IC50 is the midpoint of a concentration-inhibition curve. A low value points to greater potency in that assay. In turn, `CC(=O)c1cccc(-c2ccc(CC3(C)SC(=O)C(C)=C3O)cc2)c1` (stereo not given) gave an IC50 of 150 µM.

Compound `CC1=C(O)C(C)(Cc2ccc(-c3cc(F)cc(F)c3)cc2)SC1=O` (stereo not given) showed an IC50 of 135 µM.

As for `CC(=O)c1ccc(-c2ccc(CC3(C)SC(=O)C(C)=C3O)cc2)cc1` (stereo not given), the concentration for half-maximal inhibition (IC50) was 54 µM.

Consider `CC1=C(O)C(C)(Cc2ccc(-c3ccc(C(=O)O)cc3)cc2)SC1=O` (stereo not given), for which half-maximal inhibition (IC50) required 7 µM.

In turn, `COC(=O)c1ccc(-c2ccc(CC3(C)SC(=O)C(C)=C3O)cc2)cc1` (stereo not given) had an IC50 of 3 µM.

In the case of `CC1=C(O)C(C)(Cc2ccc(Oc3ccccc3)cc2)SC1=O` (stereo not given), the IC50 turned out to be 15 µM.

Regarding `CC1=C(O)C(C)(Cc2ccc(-c3ccc(F)cc3)cc2)SC1=O` (stereo not given), the IC50 was found to be 105 µM.

With `CC1=C(O)C(C)(Cc2ccc(-c3ccc(-c4ccccc4)cc3)cc2)SC1=O` (stereo not given), the IC50 amounted to 68 µM.

Compound `CC(=O)c1ccc(-c2ccc(CC3(C)SC(=O)C(C)=C3O)cc2)s1` (stereo not given) registered an IC50 of 200 µM. Against the preceding compound, the IC50 is about 2.9-fold higher.

Compound `CC1=C(O)C(C)(Cc2ccc(-c3ccc(C)s3)cc2)SC1=O` (stereo not given) showed an IC50 of 86 µM.

As for `CC1=C(O)C(C)(Cc2ccc(-c3ccc(Cl)cc3)cc2)SC1=O` (stereo not given), it took 130 µM to reach half-maximal inhibition (IC50).

Compound `CC1=C(O)C(C)(Cc2ccc(-c3ccc(C(N)=O)cc3)cc2)SC1=O` (stereo not given) yielded an IC50 of 4 µM.

In the case of `CC1=C(O)C(C)(Cc2ccc(-c3cccc(Cl)c3)cc2)SC1=O` (stereo not given), the IC50 amounted to 156 µM. Compared with the last compound, the IC50 is about 39-fold higher.

As to `CC1=C(O)C(C)(Cc2ccc(C(=O)c3ccccc3)cc2)SC1=O` (stereo not given), 283 µM corresponded to half-maximal inhibition (IC50). This IC50 lies about 1.8-fold higher than the previous one.

In the case of `CC1=C(O)C(C)(Cc2ccc(-c3ccc(F)c(F)c3)cc2)SC1=O` (stereo not given), the midpoint of inhibition, the IC50, lay at 207 µM.
